Test results: the NIST ThermoML archive (doi:10.1016/j.jct.2015.09.034)

Conditions: Liquid, Buoyancy - hydrostatic balance with magnetic suspension - one sinker

C [methane]
Conditions | mass density [kg/m3]
105 K, 185.5 kPa | 432.098
105 K, 478.95 kPa | 432.339
105 K, 973.88 kPa | 432.743
105 K, 1970.8 kPa | 433.554
105 K, 5044.6 kPa | 435.981
115 K, 479.33 kPa | 417.827
115 K, 973.28 kPa | 418.319
115 K, 1970 kPa | 419.298
125 K, 477.88 kPa | 402.38
125 K, 972.71 kPa | 402.99
125 K, 1970.4 kPa | 404.194
125 K, 5112.4 kPa | 407.803
135 K, 783.75 kPa | 386.1
135 K, 1001.2 kPa | 386.441
135 K, 2014.3 kPa | 387.992
135 K, 5208.9 kPa | 392.557
